# In patent US6455577B2, “Flavanone derivatives and composition for preventing or treating blood lipid level-related diseases comprising same” (Korea Research Institute of Bioscience and Biotechnology, priority 2000, dated 2002):
# Tests used:
# [1] = system: New Zealand White rabbits; test: Fatty streak in the main artery of cholesterol-fed rabbits; assay type: in vivo, rabbit
# Protocol: (§1) 22 three-month-old New Zealand White rabbits(Yeonam Horticulture and Animal Husbandry College, Korea) each weighing about 2.0 to 2.3 kg were bred under a condition of temperature 20±2° C., relative humidity 55±10%, and photoperiod 12L/12D. The rabbits were divided two groups of 6 rabbits and a group of 10 rabbits, and the rats of three groups were fed with three different diets, i.e., RC4 diet(Oriental Yeast Co., Japan) containing 1% cholesterol(Control group); 1% cholesterol plus 1 mg/kg Lovastatin® (Merck, U.S.A.)(Comparative group); and 1% cholesterol plus 0.1% NG5006, respectively. RC4 diet comprises 7.6% moisture, 22.8% crude protein, 2.8% crude fat, 8.8% crude ash, 14.4% crude cellulose and 43.6% soluble nitrogen-free substances. The rabbits were bred for 8 weeks while being allowed free access to the diets and water.
# The rabbits bred in Step 1 were sacrificed and their chest were incised. The main artery was cut out therefrom in a length of about 5 cm downward from the site 1 cm above the aortic valve and the fat surrounding the main artery was removed. The main artery was incised in the middle along the longitudinal axis and fixed in 10% neutral buffered formalin for 24 hours, and then, pinned to a dish. The moist artery was photographed and, then, staining of fatty streak was carried out in accordance with the method of Esper, E., et al. (J. Lab. Clin. Med., 121, 103-110(1993)) as follows.
# A part of the incised main artery was washed three times by 2 min. with anhydrous propylene glycol and stained for 30 min. with a saturated solution of Oil Red O(ORO, Sigma Co.) dissolved in propylene glycol. Thereafter, the artery was washed twice by 3 min. with 85% propylene glycol to remove remaining staining solution and, then washed with physical saline. The artery was photographed and the photograph was traced. The area of stained legion(fatty streak legion) was determined with an image analyzer(LEICA, Q-600, Germany) and its proportion(%) to the total arterial area was calculated. The result is shown in Table V. The results were tested by student t-test by using Microsoft excel(version 7.0) program.
# [2] = system: New Zealand White rabbits; test: Abnormal fat-containing liver cells (fatty liver) in cholesterol-fed rabbits; assay type: in vivo, rabbit
# Protocol: as §1
# In order to evaluate the effects of feeding a high cholesterol diet with NG5006 on liver tissues, the liver specimens taken from the sacrificed rabbit in Step 2 of Example 14 were treated in accordance with the procedure disclosed in Fogt F. and Nanji A., Toxicology and Applied Pharmacology, 136, 87-93, 1996; and Keegan A., et al., Journal of Hepatology, 23, 591-600, 1995, and observed under a microscope to be classified into four grades, i.e., 1+(0-25%), 2+(26-50%), 3+(51-75), 4+(76-100%) based on the proportion of abnormal fat-containing cells around the central vein in the liver acinus. The results were tested by student t-test by using Microsoft excel(version 7.0) program.
# [3] = 1% cholesterol plus 1 mg/kg Lovastatin or 0.1% NG5006
smiles,measurement,setting,value
"CCCCCCCCCCCCCCCCOc1cc(O)c2c(c1)OC(c1ccc(O)cc1)CC2=O (stereo not drawn) [NG5006, Naringenin 7-O-cetyl Ether]","layer on the arterial endothelium (FIGS. 1B, 1C)",[1]; [3],no or very thin layers of macrophage-lipid complex
same,"formation of fatty streak compared to the control group, in words","[1]; 1% cholesterol plus 1 mg/kg Lovastatin or 0.1% NG5006, 8 weeks",significantly inhibit the formation of fatty streak
same,Fatty Streak lesion (proportion of total arterial area),"[1]; 1% cholesterol plus 1 mg/kg Lovastatin or 0.1% NG5006, 8 weeks, Oil Red O staining",12.3 ± 6.2%
same,"microscopic features of the livers (FIGS. 2B, 2C)",[2]; [3],almost all liver cells are of a normal shape
same,"formation of fatty liver compared to the Control and the Lovastatin group, in words",[2]; 1% cholesterol plus 0.1% NG5006,significantly inhibits the formation of fatty liver
same,Proportion of abnormal fat-containing liver cells (grade),"[2]; grades 1+(0-25%), 2+(26-50%), 3+(51-75), 4+(76-100%), 1% cholesterol plus 1 mg/kg Lovastatin or 0.1% NG5006, 8 weeks",2.2 ± 0.9
